Results from patent publication US20100305124A1, “Acylated Aminopyridine and Aminopyridazine Insecticides” (BAYER CROPSCIENCE AG, priority 2009, published 2010).
Like-named read-outs stand apart in the source and are kept apart here.

System: green peach aphid (Myzus persicae)
Experiment: Myzus test (MYZUPE), sprayed aubergine plants
Assay type: in vivo
Conditions: read-out: effect in % (aphids killed)
Protocol: Solvent: 3 parts by weight of dimethylformamide Emulsifier: 1 part by weight of polyoxyethylenealkyl phenyl ether
An appropriate preparation of active ingredient is prepared by mixing 1 part by weight of active ingredient with the stated amount of solvent and emulsifier and diluting the concentrate with water to the desired concentration.
Aubergine plants (Solanum melongena) infested by all stages of the green peach aphid (Myzus persicae) are sprayed with a preparation of active ingredient at the desired concentration.
After the desired time, the effect in % is determined; here, 100% means that all of the aphids have been killed. Conversely, 0% means that no aphids have been killed.

[1] = application rate of 500 ppm, spray on aubergine plants

SMILES | pest or weed control at 500 ppm [1] | pest or weed control at 500 ppm
CCN(C(=O)c1ccc(Oc2ccc(-n3cncn3)cc2)nc1)c1cccnc1 [I-219] | ≥ 80% | –
CSc1ccc(C(=O)N(C)c2cccnc2)cn1 [I-110] | ≥ 80% | –
CCN(CC)C(=O)c1ccc(C(=O)N(CC)c2cccnc2)cc1 [I-251] | ≥ 80% | –
COc1cc(OC)nc(Sc2ccc(C(=O)Nc3cccnc3)cn2)n1 [I-173] | ≥ 80% | –
CC(=O)N(C)c1ccc(C(=O)N(C)c2cccnc2)cc1 [I-253] | ≥ 80% | –
COc1ccc(C(=O)N(C)c2cccnc2)cn1 [I-155] | ≥ 80% | –
COC(=O)c1cncc(Oc2ccc(C(=O)Nc3cccnc3)cn2)c1 [I-89] | ≥ 80% | –
CCOc1ccc(C(=O)N(C)c2cccnc2)cn1 [I-156] | ≥ 80% | –
C=CCN(C(=O)c1ccc(Sc2nc(C)cc(C)n2)nc1)c1cccnc1 [I-224] | ≥ 80% | –
CCN(C(=O)c1ccc(Sc2nc(C)c(C)c(C)n2)nc1)c1cccnc1 [I-220] | ≥ 80% | –
CN(C(=O)c1ccc(Sc2ncccn2)nc1)c1cccnc1 [I-136] | ≥ 80% | –
CCSCc1ccc(C(=O)N(C)c2cccnc2)cc1 [I-58] | ≥ 80% | –
CCCN(C(=O)c1ccc(Oc2ccc(OC(F)(F)F)cc2)nc1)c1cccnc1 [I-133] | ≥ 80% | –
CN(C(=O)c1ccc(Oc2ccc(Cl)c(Cl)c2)nc1)c1cccnc1 [I-115] | ≥ 80% | –
CC(C(=O)c1ccc(Oc2cccc3ncccc23)nc1)c1cccnc1 (stereo not drawn) [I-142] | ≥ 80% | –
CN(C(=O)c1ccc(NC(=O)C(F)(F)F)cc1)c1cccnc1 [I-52] | ≥ 80% | –
COc1nc(OC)nc(Sc2ccc(C(=O)Nc3cccnc3)cc2)n1 [I-188] | ≥ 80% | –
CN(C(=O)c1ccc(C(F)(F)C(F)(F)C(F)(F)F)nc1)c1cccnc1 [I-48] | – | ≥ 80%

SMILES | pest or weed control at 500 ppm [1] | pest or weed control at 500 ppm
CN(C(=O)c1ccc(Cn2ccc(C(F)(F)F)n2)cc1)c1cccnc1 [I-27, N-Methyl-N-(pyridin-3-yl)-4-{[3-(trifluoromethyl)-1H-pyrazol-1-yl]methyl}benzenecarboxamide] | ≥ 80% | –
Cc1nc(Sc2ncc(C(=O)N(C)c3cccnc3)cc2Cl)nc(C)c1C [I-167] | ≥ 80% | –
CN(C(=O)c1ccc(Oc2cnc(C(F)(F)F)nc2)nc1)c1cccnc1 [I-185] | ≥ 80% | –
Cc1ccc(Sc2ccc(C(=O)N(C)c3cccnc3)cn2)cc1 [I-105] | ≥ 80% | –
CN(C(=O)c1ccc(Oc2cc(C(F)(F)F)cc(C(F)(F)F)c2)nc1)c1cccnc1 [I-124] | ≥ 80% | –
COc1ccc(Sc2ccc(C(=O)N(C)c3cccnc3)cn2)cc1 [I-106] | ≥ 80% | –
CCN(C(=O)c1ccc(Cl)nc1)c1cccnc1 [I-191] | ≥ 80% | –
COc1cc(OC)nc(Sc2ccc(C(=O)N(C)c3cccnc3)cn2)n1 [I-174] | ≥ 80% | –
CN(C(=O)c1ccc(Oc2ccc(OC(F)(F)F)cc2)nc1)c1cccnc1 [I-116] | ≥ 80% | –
CCCSCc1ccc(C(=O)Nc2cccnc2)cc1 [I-39] | ≥ 80% | –
CN(C(=O)c1ccc(CSC(F)F)cc1)c1cccnc1 [I-62] | ≥ 80% | –
CSc1ccc(C(=O)N(C)c2cccnc2)cc1 [I-53] | ≥ 80% | –
O=C(Nc1cccnc1)c1ccc(Cn2cc(Br)c(C(F)(F)F)n2)cc1 [I-20] | ≥ 80% | –
Cc1cc(C)nc(Sc2ncc(C(=O)N(C)c3cccnc3)cc2Cl)n1 [I-152] | ≥ 80% | –
Cc1cc(C)nc(Sc2ccc(C(=O)N(Cc3ccccc3)c3cccnc3)cn2)n1 [I-227] | ≥ 80% | –
Cc1cc(C)nc(Oc2ccc(C(=O)N(C)c3cccnc3)cc2)n1 [I-182] | ≥ 80% | –
COc1ccc(Oc2ccc(C(=O)Nc3cccnc3)cn2)cc1 [I-81] | ≥ 80% | –
C=CCN(C(=O)c1ccc(Cl)nc1)c1cccnc1 [I-231] | ≥ 80% | –
